The results in this text go back to paper PMC6864781, “Synthesis, Antitumor Activity, and Docking Analysis of New Pyrido[3′,2′:4,5]furo(thieno)[3,2-d]pyrimidin-8-amines” (Molecules, 2019).

SMILES strings stand for the structures. Converted amounts (≈) assume the structure as drawn. “Also recorded” adds a separate entry of the source.

Holding throughout (format): cell-based
The test system of assay [1] is DNA of tumor sarcoma 180 (S-180). Description: Influence on methylation of DNA of tumor sarcoma 180 in vitro (5-MC content). Conditions: 3 × 10^−6 M compound, 24 h at 37 °C; for inhibition at 3 µM: reduction of 5-MC content vs S-180 control, read-out: Inhibition of the Level of DNA Methylation; for Content of Bases in DNA, 5-MC ± ζ: tumor homogenate, S-180 control 0.64 ± 0.02, seven determinations; for Effect on tumor DNA methylation (in words): S-180. The protocol: It is known that DNA methylation in cancer plays a variety of roles, helping to change the healthy regulation of gene expression to a disease pattern. DNA hypermethylation in neoplasia is a specific epigenetic sign that can guide the diagnosis and treatment of this disease. We studied the effect of synthesized substances on tumor DNA in vitro. After the incubation of tumor cells with the studied compounds, the isolated DNA was hydrolyzed to nitrogen bases. In the studied DNA, the nucleotide composition (guanine (G), cytosine (C), 5-methylcitosine (5-MC), adenine (A), thymine (T)) complied with the rules of Chargaff. Isolated DNA belonged to the AT type, and the amount of basic bases (G + C + 5-MC) within them was 42.24–44.64 mol %, which is typical for eukaryotic DNA. Almost the same content of basic bases (G, C, A, and T) was observed, while a clear difference between DNA samples was found only in relation to the content of 5-MC, which indicated the demethylating ability of the compounds.
The influence of synthesized compounds on the methylation of DNA of tumor sarcoma 180 (S-180) was studied in vitro. Transplanted S-180 was isolated from animals after slaughter by decapitation under ether narcosis. A 3 × 10^−6 M solution of compounds (solvent: carboxymethylcellulose) was added to the tumor homogenate (12.5 mL of a solution per 10 g of tumor), and the mixture was incubated for 24 h at 37 °C. After the incubation, tumor DNA was extracted using the phenol–chloroform method. Hydrolysis to the nitrogen bases was carried out in sealed glass ampoules in 85% formic acid at 176 °C for 1 h (0.1 mL of acid per 1 mg of DNA). The separation of nitrogen bases (guanine (G), cytosine (C), 5-methylcitosine (5-MC), adenine (A), and thymine (T)) was produced by thin-layer chromatography in the solvent n-butanol/water/ammonia. Spectrophotometry of the eluates of all bases was made against eluates from the respective control areas of the chromatograms. In our studies, the well-known antitumor drug doxorubicin (manufactured by EBEWE Pharma Ges.m.b.H. Nfg. KG, 4866 Unterach, Austria) was used as a standard preparation. The data were statistically processed using Student’s and Fischer’s tests (p < 0.05).

For the next assay, the system named is HeLa cells. Description: Cell viability (MTT) assay, HeLa. Conditions: Homo sapiens, 72 h, read-out: IC50, antiproliferative activity. On the procedure:
(§1) Vero and HeLa cells were seeded in a 96-well culture plate at a density of 20,000 cells/well. The plates were preincubated in a 5% CO2/95% air-humidified atmosphere at 37 °C for 24 h to allow for adaptation of the cells prior to the addition of the test compounds. All compounds were dissolved in dimethyl sulfoxide (DMSO) prior to dilution (1 mg/mL stock solution). The 50% inhibitory concentration (IC50) was determined over a range of concentrations (0.5 μg/mL to 10 μg/mL). All cells were incubated for 72 h, and then cell viability was estimated using an MTT (3-(4,5-dimethylthiazol-2-yl)-2,5-diphenyltetrazolium bromide) assay, as previously described. Colorimetric measurements were performed on a microplate reader at 570 nm (Tecan Spectra II, Switzerland). The percentage of viable cells was calculated for each concentration as ((ODT/ODC) × 100), where ODT and ODC corresponded to the absorbance of the treated and control cells, respectively. The IC50 was calculated by using linear regression analysis.

In the next assay the test system is Vero cells. Description: Cell viability (MTT) assay, Vero. Conditions: Chlorocebus sabaeus, Vero (normal cells), 72 h, read-out: IC50, antiproliferative activity. On the procedure: as §1

As usually defined, the inhibition is how much of the control response was suppressed. Consider `c1coc(-c2nc3sc4c(N5CCCCC5)ncnc4c3c3c2CCCC3)c1` [Compound 5a, 5-(2-Furyl)-8-piperidin-1-yl-1,2,3,4-tetrahydropyrimido[4′,5′:4,5]thieno[2,3-c]isoquinoline], for which, in assay [1], the inhibition at 3 µM is 40.6% and the “Content of Bases in DNA, 5-MC ± ζ” value came to 0.38 ± 0.02 mol %.

As usually defined, the IC50 is the midpoint of a concentration-inhibition curve. `CC1CCN(c2ncnc3c2sc2nc(-c4ccco4)c4c(c23)CCCC4)CC1` [Compound 5b, 5-(2-Furyl)-8-(4-methylpiperidin-1-yl)-1,2,3,4-tetrahydropyrimido[4′,5′:4,5]thieno[2,3-c]isoquinoline]: in assay [1], the inhibition at 3 µM was found to be 60.9% and the “Content of Bases in DNA, 5-MC ± ζ” value turned out to be 0.25 ± 0.02 mol %. The IC50 with HeLa cells was determined as 8.4 ± 0.2 µg/mL (≈ 20.8 µM). Besides, the IC50 with Vero cells came to 16.8 ± 0.6 µg/mL (≈ 41.5 µM).

Regarding `c1coc(-c2nc3sc4c(N5CCOCC5)ncnc4c3c3c2CCCC3)c1` [Compound 5c, 5-(2-Furyl)-8-morpholin-4-yl-1,2,3,4-tetrahydropyrimido[4′,5′:4,5]thieno[2,3-c]isoquinoline], in assay [1], the inhibition at 3 µM amounted to 23% and the “Content of Bases in DNA, 5-MC ± ζ” value is listed as 0.49 ± 0.02 mol %.

Consider `CC(C)CNc1ncnc2c1sc1nc(-c3ccco3)c3c(c12)CCCC3` [Compound 5d, 5-(2-Furyl)-N-isobutyl-1,2,3,4-tetrahydropyrimido[4′,5′:4,5]thieno[2,3-c]isoquinolin-8-amine], for which, in assay [1], the inhibition at 3 µM was determined as 34.4% and the “Content of Bases in DNA, 5-MC ± ζ” value is 0.42 ± 0.03 mol %.

In the case of `CCN(CC)CCNc1ncnc2c1sc1nc(-c3ccco3)c3c(c12)CCCC3` [Compound 5e, N,N-Diethyl-N′-[5-(2-furyl)-1,2,3,4-tetrahydropyrimido[4′,5′:4,5]thieno[2,3-c]isoquinolin-8-yl]ethane-1,2-diamine], in assay [1], the inhibition at 3 µM was 28.1% and the “Content of Bases in DNA, 5-MC ± ζ” value is reported as 0.46 ± 0.02 mol %.

`c1coc(-c2nc3sc4c(NCC5CCCO5)ncnc4c3c3c2CCCC3)c1` (stereo not shown) [Compound 5f, 5-(2-Furyl)-N-(tetrahydrofuran-2-ylmethyl)-1,2,3,4-tetrahydropyrimido[4′,5′:4,5]thieno[2,3-c]isoquinolin-8-amine]: in assay [1], the inhibition at 3 µM was found to be 89.1% and the “Content of Bases in DNA, 5-MC ± ζ” value was 0.07 ± 0.02 mol %. In addition, the IC50 in the assay on HeLa cells amounted to 4.4 ± 0.3 µg/mL (≈ 10.8 µM). Moreover, the IC50 with Vero cells was determined as 6.4 ± 0.4 µg/mL (≈ 15.7 µM).

In the case of `CC(C)c1nc2oc3c(NCCO)ncnc3c2c2c1COC(C)(C)C2` [Compound 7a], the “Content of Bases in DNA, 5-MC ± ζ” value in assay [1] is 0.85 ± 0.03 mol %.

As for `CC(C)c1nc2oc3c(NCCN(C)C)ncnc3c2c2c1COC(C)(C)C2` [Compound 7b], in assay [1], the inhibition at 3 µM came out at 62.5% and the “Content of Bases in DNA, 5-MC ± ζ” value was determined as 0.24 ± 0.01 mol %. Further, in the assay with HeLa cells, the IC50 worked out at 5.4 ± 0.2 µg/mL (≈ 14.1 µM). Moreover, the half-inhibitory concentration (IC50) with Vero cells came to 13.7 ± 0.4 µg/mL (≈ 35.7 µM).

Consider `CCN(CC)CCNc1ncnc2c1oc1nc(C(C)C)c3c(c12)CC(C)(C)OC3` [Compound 7c, N,N-Diethyl-N′-(5-isopropyl-2,2-dimethyl-1,4-dihydro-2H-pyrano[4″,3″:4′,5′]pyrido[3′,2′:4,5]furo[3,2-d]pyrimidin-8-yl)ethane-1,2-diamine], for which, in assay [1], the inhibition at 3 µM stood at 42.2% and the “Content of Bases in DNA, 5-MC ± ζ” value turned out to be 0.37 ± 0.01 mol %.

For the compound `CC(C)c1nc2oc3c(NCCN4CCOCC4)ncnc3c2c2c1COC(C)(C)C2` [Compound 7d], in assay [1], the inhibition at 3 µM came out at 48.4% and the “Content of Bases in DNA, 5-MC ± ζ” value was 0.33 ± 0.01 mol %.

As to `COc1ccc(CCNc2ncnc3c2oc2nc(C(C)C)c4c(c23)CC(C)(C)OC4)cc1OC` [Compound 7e, N-[2-(3,4-Dimethoxyphenyl)ethyl]-5-isopropyl-2,2-dimethyl-1,4-dihydro-2H-pyrano[4″,3″:4′,5′]pyrido[3′,2′:4,5]furo[3,2-d]pyrimidin-8-amine], in assay [1], the inhibition at 3 µM amounted to 56.2% and the “Content of Bases in DNA, 5-MC ± ζ” value amounted to 0.28 ± 0.01 mol %.

Regarding `CC(C)c1nc2oc3c(NCC4CCCO4)ncnc3c2c2c1COC(C)(C)C2` (stereo not shown) [Compound 7f, 5-Isopropyl-2,2-dimethyl-N-(tetrahydrofuran-2-ylmethyl)-1,4-dihydro-2H-pyrano[4″,3″:4′,5′]pyrido[3′,2′:4,5]furo[3,2-d]pyrimidin-8-amine], in assay [1], the inhibition at 3 µM amounted to 21.9% and the “Content of Bases in DNA, 5-MC ± ζ” value is reported as 0.50 ± 0.02 mol %.

With `CC(C)c1nc2oc3c(NCc4ccco4)ncnc3c2c2c1COC(C)(C)C2` [Compound 7g, N-(2-Furylmethyl)-5-isopropyl-2,2-dimethyl-1,4-dihydro-2H-pyrano[4″,3″:4′,5′]pyrido[3′,2′:4,5]furo[3,2-d]pyrimidin-8-amine], in assay [1], the inhibition at 3 µM came out at 40.6% and the “Content of Bases in DNA, 5-MC ± ζ” value was found to be 0.38 ± 0.02 mol %.

Take `CC(C)c1nc2oc3c(NCc4cccnc4)ncnc3c2c2c1COC(C)(C)C2` [Compound 7h]: in assay [1], the inhibition at 3 µM worked out at 34.4% and the “Content of Bases in DNA, 5-MC ± ζ” value is 0.42 ± 0.02 mol %.

With `CC(C)c1nc2oc3c(NCCCN(C)C)ncnc3c2c2c1COC(C)(C)C2` [Compound 7i], the “Effect on tumor DNA methylation (in words)” value in assay [1] was “did not affect DNA methylation; also recorded: loss of activity”.

For the compound `CC(C)Cc1nc2oc3c(NCCO)ncnc3c2c2c1COC(C)(C)C2` [Compound 7j, 2-[(5-Isobutyl-2,2-dimethyl-1,4-dihydro-2H-pyrano[4″,3″:4′,5′]pyrido[3′,2′:4,5]furo[3,2-d]pyrimidin-8-yl)amino]ethanol], the “Effect on tumor DNA methylation (in words)” value in assay [1] is recorded as “did not affect DNA methylation; also recorded: no activity”.

`CC(C)Cc1nc2oc3c(NCCCO)ncnc3c2c2c1COC(C)(C)C2` [Compound 7k]: in assay [1], the inhibition at 3 µM worked out at 18.8% and the “Content of Bases in DNA, 5-MC ± ζ” value amounted to 0.52 ± 0.01 mol %.

Consider `CCOC(=O)N1CCN(c2ncnc3c2sc2nc(C(C)C)c4c(c23)CC(C)(C)OC4)CC1` [Compound 7l, Ethyl 4-(5-isopropyl-2,2-dimethyl-1,4-dihydro-2H-pyrano[4″,3″:4′,5′]pyrido[3′,2′:4,5]thieno[3,2-d]pyrimidin-8-yl)piperazine-1-carboxylate], for which, in assay [1], the inhibition at 3 µM came out at 29.7% and the “Content of Bases in DNA, 5-MC ± ζ” value is on record as 0.45 ± 0.03 mol %.

Consider `CC(C)c1nc2sc3c(NCC4CCCO4)ncnc3c2c2c1COC(C)(C)C2` (stereo not shown) [Compound 7m, 5-Isopropyl-2,2-dimethyl-N-(tetrahydrofuran-2-ylmethyl)-1,4-dihydro-2H-pyrano[4″,3″:4′,5′]pyrido[3′,2′:4,5]thieno[3,2-d]pyrimidin-8-amine], for which, in assay [1], the inhibition at 3 µM is 37.5% and the “Content of Bases in DNA, 5-MC ± ζ” value was 0.40 ± 0.02 mol %.

Turning to `COc1cccc2c1C(=O)c1c(O)c3c(c(O)c1C2=O)C[C@@](O)(C(=O)CO)C[C@@H]3O[C@H]1C[C@H](N)[C@H](O)[C@H](C)O1` [Doxorubicin, doxorubicin, reference compound], in assay [1], the inhibition at 3 µM stood at 67.2% and the “Content of Bases in DNA, 5-MC ± ζ” value is given as 0.21 ± 0.01 mol %.
